According to BindingDB's records for doi:10.1016/0960-894X(96)00185-0 (1996):

Biological target: Human immunodeficiency virus type 1 protease (Human immunodeficiency virus 1, UniProt Q72874)
Experiment: ChEBML_159443
Text: In vitro inhibitory activity against HIV-1 protease(PR).

| Structure (SMILES) | IC50 |
| --- | --- |
| O=c1oc(-c2ccc(O)cc2)cc(O)c1SCc1ccccc1 [3-Benzylsulfanyl-4-hydroxy-6-(4-hydroxy-phenyl)-pyran-2-one] | 690 nM |
| O=c1oc(-c2cccc(Cl)c2)cc(O)c1SCc1ccccc1 [3-Benzylsulfanyl-6-(3-chloro-phenyl)-4-hydroxy-pyran-2-one] | 690 nM |
